Results taken from patent US20090148850A1, “Methods for identifying modulators of P2RY14” (priority 2007, published 2009).

Tests used:
simian P2RY14 = test: Membrane filtration binding assay, simian P2RY14; design: species or system chimpanzee
Experimental: (§1) Membrane preparations were made by N2 cavitation using a Parr unit. […] Cell were Dounce homogenized (size B, 10 strokes) and then added to the cavitation unit. Pressure was adjusted to 800 psi and cells were left under pressure for 30 minutes. Broken cells were released drop by drop and spun at 1000 g for 10 minutes. Supernatent was spun at 160,000 g (rotor type 60 Ti, 40000 rpm for 30 min). Pellet was resuspended in 10 mM HEPES/KOH pH 7.4, 1 mM EDTA in ⅕ the original volume, dounce homogenized (size A, 10 strokes), aliquoted, and frozen at −80° C.
Binding assays were performed in 10 mM Hepes pH 7.4 (KOH), 5 mM MnCl2, 5 mM MgCl2 buffer. Membranes (10 μg/well for human P2RY14 and 30 μg/well for simian P2RY14) were incubated with 10 nM [5.6-^3H] Uridine 5′-triphosphate (UTP), ammonium salt from Amersham Biosciences (# TRK412) in presence of compounds diluted in DMSO (2% final in assay), in a total volume of 100 μl. 50 minutes (human P2RY14) or 60 minutes (simian) P2RY14) incubations were performed at room temperature with shaking. […] To examine the stability of [^3H]-UTP in the membrane filtration binding assay, 100 ul aliquots of the reaction mixture were extracted at 2, 10, 20, 40, 60 and 90 minutes with 100 uL of cold 80 mM EDTA solution (pH 8) and 200 uL of cold Acetonitrile. After mixing, proteins were precipitated by centrifugation at 13000 rpm for 10 minutes at 4° C. […] After 0.5 min at 10:90 50 mM KH2PO4/750 mM KH2PO4, a gradient was applied in order to increase to 100% 750 mM KH2PO4 at 5 min, after which this composition was maintained for an additional 3 min. Samples were kept at 4° C. prior to HPLC analysis

P2RY14 = target: T1, P2RY14 (Homo sapiens, UniProt Q15391); test: Membrane filtration binding assay, human P2RY14; design: expressed in transfected cells; settings: human P2RY14 (data not shown)
T1 sequence (Q15391 1-338): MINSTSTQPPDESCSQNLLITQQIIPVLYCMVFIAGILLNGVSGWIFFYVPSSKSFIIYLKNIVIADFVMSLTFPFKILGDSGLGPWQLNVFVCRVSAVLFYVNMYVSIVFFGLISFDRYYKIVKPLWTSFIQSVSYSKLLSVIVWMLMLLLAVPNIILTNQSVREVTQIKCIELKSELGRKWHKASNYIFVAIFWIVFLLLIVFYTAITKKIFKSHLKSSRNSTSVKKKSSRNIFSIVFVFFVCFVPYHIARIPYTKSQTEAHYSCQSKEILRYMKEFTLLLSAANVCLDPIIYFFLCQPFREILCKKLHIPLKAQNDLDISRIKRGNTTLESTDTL
Experimental: as §1
Binding assays were performed in 10 mM Hepes pH 7.4 (KOH), 5 mM MnCl2, 5 mM MgCl2 buffer. Membranes (10 μg/well for human P2RY14 and 30 μg/well for simian P2RY14) were incubated with 10 nM [5.6-^3H] Uridine 5′-triphosphate (UTP), ammonium salt from Amersham Biosciences (# TRK412) in presence of compounds diluted in DMSO (2% final in assay), in a total volume of 100 μl. 50 minutes (human P2RY14) or 60 minutes (simian) P2RY14) incubations were performed at room temperature with shaking. […] To examine the stability of [^3H]-UTP in the membrane filtration binding assay, 100 ul aliquots of the reaction mixture were extracted at 2, 10, 20, 40, 60 and 90 minutes with 100 uL of cold 80 mM EDTA solution (pH 8) and 200 uL of cold Acetonitrile. After mixing, proteins were precipitated by centrifugation at 13000 rpm for 10 minutes at 4° C. […]

[1] = HPLC analysis of [3H]-UTP stability in the P2RY14 membrane filtration binding assay; settings: 60 minute incubation
Experimental: Binding assays were performed in 10 mM Hepes pH 7.4 (KOH), 5 mM MnCl2, 5 mM MgCl2 buffer. Membranes (10 μg/well for human P2RY14 and 30 μg/well for simian P2RY14) were incubated with 10 nM [5.6-^3H] Uridine 5′-triphosphate (UTP), ammonium salt from Amersham Biosciences (# TRK412) in presence of compounds diluted in DMSO (2% final in assay), in a total volume of 100 μl. 50 minutes (human P2RY14) or 60 minutes (simian) P2RY14) incubations were performed at room temperature with shaking. […] Incubation mixtures were filtered on GF/C Packard filter membranes (#6065174) and washed with cold 10 mM Hepes/KOH buffer at pH 7.4 (2×3.7 ml) using a Tomtek Mach III harvester. GF/C filters were subsequently dried at 55° C. in a vacuum oven for 1 hour before addition of 25 μl/well Ultima Gold F scintillation fluid from Packard (#6013179) and counted in a Wallac Microbeta counter normalized for ^3H (2 min/well). Counts (ccpms) generated by non specific binding were subtracted from total counts, to give specific binding which was expressed as % of total binding and K is were calculated by data analyzer using the inflection point of the dose dependant sigmoidal curve generated for each compound. Kds for [^3H]-UTP/[^3H]-UDP in the human and simian assays were determined by Scatchard analysis and are as follow: 10.03 nM for human P2RY14 and 10.25 nM for simian P2RY14. […]

mouse P2RY14 [2] = target: T2, mouse P2RY14 (Mus musculus, UniProt Q9ESG6); test: CellKey System live cell functional assay, mouse P2RY14; type: cell-based; settings: HEK cells expressing mouse P2RY14 and Gqi5
T2 construct: expressed in transfected cells
T2 sequence (Q9ESG6 1-338): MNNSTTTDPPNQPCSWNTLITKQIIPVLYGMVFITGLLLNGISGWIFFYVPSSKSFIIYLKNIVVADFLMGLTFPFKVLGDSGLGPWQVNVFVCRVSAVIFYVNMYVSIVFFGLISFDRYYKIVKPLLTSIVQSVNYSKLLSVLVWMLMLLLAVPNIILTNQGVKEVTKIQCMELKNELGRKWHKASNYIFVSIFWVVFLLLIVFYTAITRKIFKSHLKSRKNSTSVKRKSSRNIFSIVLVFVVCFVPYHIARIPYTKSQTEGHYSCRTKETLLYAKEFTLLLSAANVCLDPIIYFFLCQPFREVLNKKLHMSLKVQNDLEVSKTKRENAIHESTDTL
Experimental: (§2) The Cellkey System™ (MDS Sciex), a novel, live cell, label-free, real-time technology, was used to examine P2RY14 activation following agonist stimulation. The CellKey System™ is based on cellular dielectric spectroscopy (CDS) and monitors changes in impedance of the applied electrical current through the cell monolayer upon receptor activation.
(§3) On the following day, growth medium was removed from the cell monolayer and replaced with 135 μl of HBSS pH 7.4 containing 20 mM Hepes for a 30 minutes pre-incubation period at room temperature. Baseline measurements were made for 5 minutes at 28° C. prior to ligand addition. For agonist assays, 15 μl of 10× agonist diluted in HBSS pH 7.4 containing 20 mM HEPES was added to the cell monolayer simultaneously using the 96 multichannel head from the CellKey™ System. Cellular response was monitored for 10 minutes to assess cellular response after ligand addition.

[3] = tested on: simian (chimpanzee) P2RY14; test: FLIPR whole cell Ca2+ agonist assay, HEK cells expressing simian (chimpanzee) P2RY14 and Gqi5; type: cell-based
Excerpt: (§4) Stable HEK clonal cell lines expressing P2RY14 and the chimeric G protein Gqi5 were constructed. The chimeric Gqi5 forces the coupling of P2RY14 through the Gq (calcium) pathway and allows for monitoring of calcium signaling using a calcium binding fluorescent dye and a FLIPR (fluorometric imaging plate reader, MDS Sciex). Vector pCEP4 comprising the chimeric Gqi5 was obtained from Molecular Devices, Sunnyvale, Calif. (Cat. No. RD-PGQI5).
The simian (chimpanzee) P2RY14 nucleic acid fragment was synthesized based upon the Ensembl Gene ID ENSPTRG00000030093 by Bio S & T, Montreal, Quebec, Canada, to be flanked with KpnI and NotI restriction enzyme sites. […] The DNA fragment was digested with KpnI and NotI and then cloned into a pcDEF3 vector previously digested with KpnI and NotI to place the DNA fragment in the proper orientation downstream of the human EF-1a promoter. The nucleic acid encoding the simian P2RY14 was under the control of the human EF-1a promoter.
(§5) Cells were grown in DMEM medium containing 25 mM HEPES, pH 7.4 and 10% FBS, 50 units/ml penicillin/50 μg/ml streptomycin, 2 mM glutamine and 1 mM sodium pyruvate at 37° C. in humidified air containing 5% CO2. Two days post-transfection, cells were grown under selection in the DMEM medium as indicated above and supplemented with 200 μg/ml Hygromycin B and 250 μg/ml geneticin.
(§6) Cells were incubated overnight at 37° C. and 5% CO2 to form a monolayer. On the following day, 30 μl of fluorescent no-wash dye was added to the cell monolayer and the plate was incubated for 60 minutes at 37° C., 5% CO2.
(§7) For agonist assays, 6.12 μl of 10× agonist solution was added to the cell/dye incubation and Ca^2+ signaling was monitored by FLIPR. For antagonist assays, 250 nl of compound in 100% DMSO was added to cell/dye mixture; following a 20 minute incubation at room temperature, 6.12 μl of 10× agonist solution at EC80 in HBSS containing 20 mM Hepes was added to cells and Ca^2+ signaling was monitored by FLIPR. Quantitation of the % stimulation or inhibition of Ca^2+ signaling by agonist or antagonist, respectively, was calculated using the Max-Min fluorescent signal detected.

[4] = tested on: simian (chimpanzee) P2RY14; test: CellKey System live cell functional assay, simian P2RY14; type: cell-based; settings: HEK cells expressing simian P2RY14 and Gqi5
Experimental: as §2, §3

[5] = tested on: HEK cells not expressing P2RY14; test: FLIPR Ca2+ release in HEK cells not expressing P2RY14 (specificity); type: cell-based
rat P2YR14 receptor = target: T3, rat P2YR14 receptor (Rattus norvegicus, UniProt O35881); settings: Fricks et al. 2007; cited from earlier work
T3 sequence (O35881 1-305): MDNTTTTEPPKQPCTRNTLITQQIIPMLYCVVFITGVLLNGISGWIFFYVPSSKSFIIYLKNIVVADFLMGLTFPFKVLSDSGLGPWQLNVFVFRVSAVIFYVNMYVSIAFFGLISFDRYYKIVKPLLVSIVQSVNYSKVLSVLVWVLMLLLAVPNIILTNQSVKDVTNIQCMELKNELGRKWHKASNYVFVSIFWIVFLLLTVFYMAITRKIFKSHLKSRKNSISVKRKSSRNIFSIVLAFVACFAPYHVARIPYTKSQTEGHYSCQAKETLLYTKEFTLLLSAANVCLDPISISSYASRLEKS

mouse P2RY14 [6] = target: T2, mouse P2RY14; test: FLIPR whole cell Ca2+ agonist assay, HEK cells expressing mouse P2RY14 and Gqi5; type: cell-based
Excerpt: as §4
The nucleic acid encoding the mouse P2RY14 was under the control of the CMV promoter.
as §5, §6, §7

Row | SMILES | specific binding window as radioligand (simian P2RY14; HEK cells expressing simian P2RY14, membrane filtration) | specific binding window as radioligand (P2RY14) | stability of radioligand in membrane filtration binding assay [1] | time of conversion to [3H]-UDP [1] | P2RY14 signaling (impedance, CellKey) (mouse P2RY14 [2]) | activation of P2RY14 (Ca2+ signaling) [3] | P2RY14 signaling (impedance, CellKey) [4] | Ca2+ release in cells not expressing P2RY14 [5] | competition for [3H]-UTP/[3H]-UDP binding (simian P2RY14; simian P2RY14 membranes) | mode of action at receptor (rat P2YR14 receptor) | activation of P2RY14 (Ca2+ signaling) (mouse P2RY14 [6])
1 | N.N.N.N.[3H]c1c([3H])n([C@@H]2O[C@H](COP(=O)(O)OP(=O)(O)OP(=O)(O)O)[C@@H](O)[C@H]2O)c(=O)[nH]c1=O [[^3H]-UTP, [5.6-^3H] Uridine 5′-triphosphate (UTP), ammonium salt] | a specific binding window | a specific binding window | converted predominantly to [^3H]-UDP | ≤ 10 min | – | – | – | – | – | – | –
2 | O=c1ccn([C@@H]2O[C@H](COP(=O)(O)OP(=O)(O)O)[C@@H](O)[C@H]2O)c(=O)[nH]1 [UDP] | – | – | – | – | mediated signaling | activated | mediated signaling | do not stimulate Ca^2+ release | able to successfully compete | full agonist | activated
